# Assay results as given in US9701664B2, “Fused 1,4-dihydrodioxin derivatives as inhibitors of heat shock transcription factor 1” (Cancer Research Technology Limited, priority 2013, dated 2017).
# Test system: HSP72 in SK-OV-3 cells
# Assay: Cell-based ELISA (Cellisa) assay, SK-OV-3 cells: inhibition of 17-AAG-induced HSP72
# Settings: Homo sapiens; SK-OV-3 cells (Examples 169-218)
# Protocol: U2OS cells (5-8×10^4 cells/mL) or SK-OV-3 cells (5-8×10^4 cells/mL) were seeded into 96-well plates and incubated at 37° C. for 48 h. Compounds were then added at a range of concentrations and incubated for 1 h before addition of 17-AAG (250 nM). Cells were then incubated for 18 h. The medium was removed washed 2× with PBS and cells were then fixed with fixing solution (4% paraformaldehyde, 0.3% TritonX-100 in PBS) for 30 min at 4° C. The plates were then washed 2× with PBS before blocking with 5% milk for 30 min at 37° C. After washing the plates 4× with 0.1% Tween-20/deionised water, HSP72 antibody (SPA-810, Enzo Life) was added for 1.5 h at 37° C. Following 4× washes, the plates were incubated with europium-labelled anti-mouse antibody (0.6 ug/ml) in Delfia assay buffer (Perkin Elmer) for 1 h at 37° C. After washing the plates, Delfia enhancement solution was added, shaken for 10 min before reading in the Envision plate reader (Perkin-Elmer) with excitation at 340 nm and emission at 615 nm. The plates were washed again before protein determination using the bicinchoninic acid assay (BCA assay, Pierce Biotechnology). The europium counts were normalised for the amount of protein in each well. The 50% inhibitory concentration value of the compound was then calculated.
row,Compound,IC50
1,"O=C(Nc1ccc(F)c(NC(=O)c2ccc3nc(CN4CCNCC4)ccc3c2)c1)c1ccc2c(c1)OCCO2 [Example 174, N-(5-(2,3-dihydrobenzo[b][1,4]dioxine-6-carboxamido)-2-fluorophenyl)-2-(piperazin-1-ylmethyl)quinoline-6-carboxamide]",78 nM
2,"CC(C)N1CCN(Cc2ccc3cc(C(=O)Nc4cc(NC(=O)c5ccc6c(c5)OCCO6)ccc4F)ccc3n2)[C@@H](C)C1 [Example 217, (S)—N-(5-(2,3-dihydrobenzo[b][1,4]dioxine-6-carboxamido)-2-fluorophenyl)-2-((4-isopropyl-2-methylpiperazin-1-yl)methyl)quinoline-6-carboxamide]",137 nM
3,"CC1(C)CN(Cc2ccc3cc(C(=O)Nc4cc(NC(=O)c5ccc6c(c5)OCCO6)ccc4Cl)ccc3n2)C1 [Example 201, N-(2-chloro-5-(2,3-dihydrobenzo[b][1,4]dioxine-6-carboxamido)phenyl)-2-((3,3-dimethylazetidin-1-yl)methyl)quinoline-6-carboxamide]",83 nM
4,"CC1(C)CN(Cc2ccc3cc(C(=O)Nc4cc(NC(=O)c5ccc6c(c5)OCCO6)ccc4F)ccc3n2)C1 [Example 183, N-(5-(2,3-dihydrobenzo[b][1,4]dioxine-6-carboxamido)-2-fluorophenyl)-2-((3,3-dimethylazetidin-1-yl)methyl)quinoline-6-carboxamide]",131 nM
5,"C[C@H]1CCCN1Cc1ccc2cc(C(=O)Nc3cc(NC(=O)c4ccc5c(c4)OCCO5)ccc3F)ccc2n1 [Example 175, (S)—N-(5-(2,3-dihydrobenzo[b][1,4]dioxine-6-carboxamido)-2-fluorophenyl)-2-((2-methylpyrrolidin-1-yl)methyl)quinoline-6-carboxamide]",647 nM
6,"O=C(Nc1ccc(Cl)c(NC(=O)c2ccc3nc(CN4CCNCC4)ccc3c2)c1)c1ccc2c(c1)OCCO2 [Example 192, N-(2-chloro-5-(2,3-dihydrobenzo[b][1,4]dioxine-6-carboxamido)phenyl)-2-(piperazin-1-ylmethyl)quinoline-6-carboxamide]",128 nM
7,"CN1CCN(Cc2ccc3cc(C(=O)Nc4cc(NC(=O)c5ccc6c(c5)OCCO6)ccc4F)ccc3n2)CC1 [Example 173, N-(5-(2,3-dihydrobenzo[b][1,4]dioxine-6-carboxamido)-2-fluorophenyl)-2-((4-methylpiperazin-1-yl)methyl)quinoline-6-carboxamide]",100 nM
8,"O=C(Nc1ccc(Cl)c(NC(=O)c2ccc3nc(OCCCN4CCCCC4)ccc3c2)c1)c1ccc2c(c1)OCCO2 [Example 189, N-(2-chloro-5-(2,3-dihydrobenzo[b][1,4]dioxine-6-carboxamido)phenyl)-2-(3-(piperidin-1-yl)propoxy)quinoline-6-carboxamide]",27 nM
9,"O=C(Nc1ccc(Cl)c(NC(=O)c2ccc3nc(OCCN4CCCC4)ccc3c2)c1)c1ccc2c(c1)OCCO2 [Example 211, N-(2-chloro-5-(2,3-dihydrobenzo[b][1,4]dioxine-6-carboxamido)phenyl)-2-(2-(pyrrolidin-1-yl)ethoxy)quinoline-6-carboxamide]",73 nM
10,"CC1CCCN1Cc1ccc2cc(C(=O)Nc3cc(NC(=O)c4ccc5c(c4)OCCO5)ccc3F)ccc2n1 (racemic) [Example 190, (rac)-N-(5-(2,3-dihydrobenzo[b][1,4]dioxine-6-carboxamido)-2-fluorophenyl)-2-((2-methylpyrrolidin-1-yl)methyl)quinoline-6-carboxamide]",267 nM
11,"CC(C)N1CCN(Cc2ccc3cc(C(=O)Nc4cc(NC(=O)c5ccc6c(c5)OCCO6)ccc4Cl)ccc3n2)CC1 [Example 197, N-(2-chloro-5-(2,3-dihydrobenzo[b][1,4]dioxine-6-carboxamido)phenyl)-2-((4-isopropylpiperazin-1-yl)methyl)quinoline-6-carboxamide]",43 nM
12,"CC1CN(Cc2ccc3cc(C(=O)Nc4cc(NC(=O)c5ccc6c(c5)OCCO6)ccc4Cl)ccc3n2)C1 [Example 200, N-(2-chloro-5-(2,3-dihydrobenzo[b][1,4]dioxine-6-carboxamido)phenyl)-2-((3-methylazetidin-1-yl)methyl)quinoline-6-carboxamide]",84 nM
13,"CCN1C[C@@H]2C[C@H]1CN2Cc1ccc2cc(C(=O)Nc3cc(NC(=O)c4ccc5c(c4)OCCO5)ccc3F)ccc2n1 [Example 180, N-(5-(2,3-dihydrobenzo[b][1,4]dioxine-6-carboxamido)-2-fluorophenyl)-2-(((1S,4S)-5-ethyl-2,5-diazabicyclo[2.2.1]heptan-2-yl)methyl)quinoline-6-carboxamide]",208 nM
14,"CCN1CCN(Cc2ccc3cc(C(=O)Nc4cc(NC(=O)c5ccc6c(c5)OCCO6)ccc4F)ccc3n2)[C@H](C)C1 [Example 212, (R)—N-(5-(2,3-dihydrobenzo[b][1,4]dioxine-6-carboxamido)-2-fluorophenyl)-2-((4-ethyl-2-methylpiperazin-1-yl)methyl)quinoline-6-carboxamide]",85 nM
15,"Cc1ccc(NC(=O)c2ccc3c(c2)OCCO3)cc1NC(=O)c1ccc2nc(CN3CC[C@H](F)C3)ccc2c1 [Example 207, (S)—N-(5-(2,3-dihydrobenzo[b][1,4]dioxine-6-carboxamido)-2-methylphenyl)-2-((3-fluoropyrrolidin-1-yl)methyl)quinoline-6-carboxamide]",80 nM
16,"CCN1CCCN(Cc2ccc3cc(C(=O)Nc4cc(NC(=O)c5ccc6c(c5)OCCO6)ccc4F)ccc3n2)CC1 [Example 184, N-(5-(2,3-dihydrobenzo[b][1,4]dioxine-6-carboxamido)-2-fluorophenyl)-2-((4-ethyl-1,4-diazepan-1-yl)methyl)quinoline-6-carboxamide]",60 nM
17,"CCN1CCN(Cc2ccc3cc(C(=O)Nc4cc(NC(=O)c5ccc6c(c5)OCCO6)ccc4Br)ccc3n2)CC1 [Example 215, N-(2-bromo-5-(2,3-dihydrobenzo[b][1,4]dioxine-6-carboxamido)phenyl)-2-((4-ethylpiperazin-1-yl)methyl)quinoline-6-carboxamide]",39 nM

# Same assay, conditions: SK-OV-3 cells (Examples 169-218)
row,Compound,IC50
1,"2-((4-(sec-butyl)piperazin-111)methyl)-N-(2-chloro-5-(2,3-dihydrobenzo[b][1,4]dioxine-6-carboxamido)phenyl)quinoline-6-carboxamide [Example 193]",66 nM
